In ChEMBL document CHEMBL5360546, “Identification and characterisation of the tegument-expressed aldehyde dehydrogenase SmALDH_312 of Schistosoma mansoni, a target of disulfiram” (Eur J Med Chem, 2023):
Activity calls are given as the source filed them. No cut-off for these calls is given here.

Assays:
Schistosoma mansoni [1] = test: Antischistosomal activity against Schistosoma mansoni couple assessed as decrease in total number of eggs measured after 72 hrs; assay type: functional, organism-based; conditions: dose 1-200 µM
Schistosoma mansoni [2] = test: Induction of morphological changes in male Schistosoma mansoni assessed as formation of ruptures at 25 uM by confocal laser scanning microscopy analysis; assay type: functional, organism-based
Schistosoma mansoni [3] = test: Downregulation of Smnanos1 transcript level in Schistosoma mansoni male at 10 to 25 uM measured after 72 hrs by qRT-PCR analysis; assay type: functional; conditions: dose 10-25 µM
Schistosoma mansoni [4] = test: Downregulation of Smnanos1 transcript level in Schistosoma mansoni female at 10 to 25 uM measured after 72 hrs by qRT-PCR analysis; assay type: functional; conditions: dose 10-25 µM
Schistosoma mansoni [5] = test: Induction of morphological changes in Schistosoma mansoni couple assessed as effect on gonads internal structure at 10 uM by confocal laser scanning microscopy analysis; assay type: functional, organism-based
Schistosoma mansoni [6] = test: Antischistosomal activity against Schistosoma mansoni couple assessed as worm motility at 1 uM measured after 72 hrs; assay type: functional, organism-based
Schistosoma mansoni [7] = test: Induction of morphological changes in Schistosoma mansoni couple assessed as loss of structural integrity in reproductive organs at 25 uM by scanning electron microscopy analysis; assay type: functional, organism-based
Schistosoma mansoni [8] = test: Antischistosomal activity against Schistosoma mansoni couple assessed as decrease in couple attachment at 25 uM measured upto 3 days; assay type: functional, organism-based; conditions: time <= 3.0 day
Schistosoma mansoni [9] = test: Antischistosomal activity against Schistosoma mansoni larva assessed as lethality at 500 nM measured after 72 hrs by Trypan blue staining based analysis; assay type: functional, organism-based
Schistosoma mansoni [10] = test: Upregulation of Smnanos2 transcript level in Schistosoma mansoni male at 10 uM measured after 72 hrs by qRT-PCR analysis; assay type: functional
Schistosoma mansoni [11] = test: Upregulation of Smnanos2 transcript level in Schistosoma mansoni female at 10 uM measured after 72 hrs by qRT-PCR analysis; assay type: functional
Schistosoma mansoni [12] = test: Antischistosomal activity against Schistosoma mansoni couple assessed as reduction worm motility at 10 to 200 uM measured at day 3; assay type: functional, organism-based; conditions: dose 10-200 µM, time 3.0 day
Schistosoma mansoni [13] = test: Induction of morphological changes in female Schistosoma mansoni assessed as formation of ruptures at 25 uM by confocal laser scanning microscopy analysis; assay type: functional, organism-based
Schistosoma mansoni [14] = test: Induction of morphological changes in Schistosoma mansoni couple assessed as swelling of tegument at 10 to 25 uM by confocal laser scanning microscopy analysis; assay type: functional, organism-based; conditions: dose 10-25 µM
Schistosoma mansoni [15] = test: Induction of morphological changes in Schistosoma mansoni couple assessed as tubercles rupture at 10 to 25 uM by confocal laser scanning microscopy analysis; assay type: functional, organism-based; conditions: dose 10-25 µM
Schistosoma mansoni [16] = test: Induction of morphological changes in Schistosoma mansoni couple assessed as detachment of tegument at 10 to 25 uM by confocal laser scanning microscopy analysis; assay type: functional, organism-based; conditions: dose 10-25 µM
Schistosoma mansoni [17] = test: Antischistosomal activity against Schistosoma mansoni couple assessed as couple separation at 100 uM measured at day 1 relative to control; assay type: functional; conditions: time 1 day
Schistosoma mansoni [18] = test: Downregulation of Smaldh312 level in Schistosoma mansoni male at 10 uM measured after 72 hrs by qRT-PCR analysis; assay type: functional
Schistosoma mansoni [19] = test: Induction of morphological changes in Schistosoma mansoni couple assessed as formation of blebs at 10 to 25 uM by confocal laser scanning microscopy analysis; assay type: functional, organism-based; conditions: dose 10-25 µM
[20] = Inhibition of recombinant Schistosoma mansoni ALDH312 expressed in baculovirus Sf9 cells at 100 uM in presence of NADPH relative to control
Schistosoma mansoni [21] = test: Induction of morphological changes in Schistosoma mansoni couple assessed as effect on gonads tegument at 10 uM by confocal laser scanning microscopy analysis; assay type: functional, organism-based
Schistosoma mansoni [22] = test: Induction of morphological changes in female Schistosoma mansoni assessed as degeneration of oocytes at 25 uM by scanning electron microscopy analysis; assay type: functional, organism-based
[23] = molecular target: T1, Aldehyde dehydrogenase, mitochondrial (Homo sapiens) (UniProt P05091); test: Inhibition of human ALDH2 at 100 uM in presence of NADPH relative to control
T1 sequence (whole entry): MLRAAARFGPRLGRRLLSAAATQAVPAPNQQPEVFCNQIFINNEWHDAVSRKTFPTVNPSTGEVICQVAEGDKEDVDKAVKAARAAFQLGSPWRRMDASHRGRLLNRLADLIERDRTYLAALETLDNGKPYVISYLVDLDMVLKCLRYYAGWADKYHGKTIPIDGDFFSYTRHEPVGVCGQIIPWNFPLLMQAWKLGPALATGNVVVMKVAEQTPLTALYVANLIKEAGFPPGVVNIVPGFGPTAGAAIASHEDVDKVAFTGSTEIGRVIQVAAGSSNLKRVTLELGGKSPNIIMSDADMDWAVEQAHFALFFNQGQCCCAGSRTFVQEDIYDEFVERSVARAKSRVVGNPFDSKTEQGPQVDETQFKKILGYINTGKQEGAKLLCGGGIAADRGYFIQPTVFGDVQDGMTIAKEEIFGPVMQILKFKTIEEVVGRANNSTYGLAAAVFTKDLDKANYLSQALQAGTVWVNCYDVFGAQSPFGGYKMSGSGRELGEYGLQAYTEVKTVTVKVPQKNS

Schistosoma mansoni [24] = test: Induction of morphological changes in male Schistosoma mansoni assessed as formation of blebs at 25 uM by confocal laser scanning microscopy analysis; assay type: functional, organism-based
Schistosoma mansoni [25] = test: Antischistosomal activity against Schistosoma mansoni couple assessed as couple separation at 1 uM measured after 24 to 72 hrs; assay type: functional, organism-based; conditions: time 24-72 hrs
Schistosoma mansoni [26] = test: Induction of morphological changes in female Schistosoma mansoni assessed as formation of blebs at 25 uM by confocal laser scanning microscopy analysis; assay type: functional, organism-based
Schistosoma mansoni [27] = test: Antischistosomal activity against Schistosoma mansoni couple assessed as couple separation at 25 uM measured at day 1 relative to control; assay type: functional; conditions: time 1 day
Schistosoma mansoni [28] = test: Induction of morphological changes in male Schistosoma mansoni assessed as degeneration of spermatogonia at 25 uM by scanning electron microscopy analysis; assay type: functional, organism-based
Schistosoma mansoni [29] = test: Inhibition of cell proliferation in Schistosoma mansoni couple assessed as reduction in EdU positive number measured after 3 days by Hoechst 33342 staining based analysis; assay type: functional; conditions: dose 10-25 µM, time 3.0 day
Schistosoma mansoni [30] = test: Antischistosomal activity against Schistosoma mansoni couple assessed as reduction in couple attachment at 10 uM measured at day 3 relative to control; assay type: functional; design: scale not given: the % may be the effect or the level left; conditions: time 3 day
[31] = molecular target: T1, Aldehyde dehydrogenase, mitochondrial (Homo sapiens); test: Inhibition of human ALDH2 at 100 uM in presence of NADPH
[32] = Inhibition of recombinant Schistosoma mansoni ALDH312 expressed in baculovirus Sf9 cells in presence of NADPH
[33] = Inhibition of recombinant Schistosoma mansoni ALDH312 expressed in baculovirus Sf9 cells at 50 uM in presence of NADPH relative to control

SMILES: CCN(CC)C(=S)SSC(=S)N(CC)CC [DISULFIRAM]
- Activity (Schistosoma mansoni [1]): Dose-Dependent Effect
- Activity (Schistosoma mansoni [2]): Active
- Activity (Schistosoma mansoni [3]): Active
- Activity (Schistosoma mansoni [4]): Active
- Activity (Schistosoma mansoni [5]): inactive
- Activity (Schistosoma mansoni [6]): inactive
- Activity (Schistosoma mansoni [7]): Active
- Activity (Schistosoma mansoni [8]): Active
- Activity (Schistosoma mansoni [9]): Active
- Activity (Schistosoma mansoni [10]): Active
- Activity (Schistosoma mansoni [11]): inactive
- Activity (Schistosoma mansoni [12]): Active
- Activity (Schistosoma mansoni [13]): Active
- Activity (Schistosoma mansoni [14]): Active
- Activity (Schistosoma mansoni [15]): Active
- Activity (Schistosoma mansoni [16]): Active
- Activity (Schistosoma mansoni [17]): 100%
- Activity (Schistosoma mansoni [18]): Active
- Activity (Schistosoma mansoni [19]): Active
- inhibition [20]: 41.2%
- Activity (Schistosoma mansoni [21]): inactive
- Activity (Schistosoma mansoni [22]): Active
- inhibition [23]: 99%
- Activity (Schistosoma mansoni [24]): Active
- Activity (Schistosoma mansoni [25]): inactive
- Activity (Schistosoma mansoni [26]): Active
- Activity (Schistosoma mansoni [27]): 50%
- Activity (Schistosoma mansoni [28]): Active
- inhibition (Schistosoma mansoni [29]): Dose-Dependent Effect
- Activity (Schistosoma mansoni [30]): 50%

SMILES: CN1CCC(NCc2cccc(-c3ccc(S(=O)(=O)NCc4ccccc4)cc3)c2)CC1
- inhibition [20]: 80.4%
- inhibition [31]: inactive
- IC50 [32]: 21.8 µM

SMILES: CC(C)=CCC/C(C)=C\CNCCNC1C2CC3CC(C2)CC1C3 (stereo not given)
- inhibition [20]: 100%
- inhibition [31]: Active
- IC50 [32]: 12.5 µM

SMILES: O=C(Nc1ccc(C(F)(F)F)c(C(F)(F)F)c1)c1cc(Cl)ccc1O
- inhibition [33]: 100%
- inhibition [20]: 100%
- inhibition [31]: inactive
- IC50 [32]: 7.5 µM
